Test system: C2C12 myotubes
Test: High resolution respirometry in C2C12 myotubes
Type: cell-based, mouse
Conditions: 25 μM AvoB
Protocol: Cells treated with test compounds for 24 h were trypsinized, counted, and resuspended in phosphate buffer saline (PBS). High-resolution O2 consumption measurements were conducted in 2 ml of respiration medium (PBS, pH 7.5, stir speed 750 rpm) using the Oroboros Oxygraph-2k (Oroboros Instruments, Corp., Innsbruck, Austria) set to 37° C. with a gain of 2 in both chambers. Briefly, after the injection of 5 million treated INS-1 (832/13) cells or C2C12 myotubes per chamber, basal respiration was measured once steady-state respiratory flux was obtained; this represents coupled respiration fueled by available substrates from the incubation with test compounds. Uncoupled respiration was then measured following addition of the ATP synthase inhibitor oligomycin (0.25 μM). This was followed by measuring maximal respiratory rate by stepwise titration of carbonyl cyanide p-trifluoromethoxy phenyl hydrazone (FCCP; within 0.1-0.25 μM) in the presence of 1 mmol/L pyruvate. […] Data was recorded with DatLab software (Oroboros Instruments, Innsbruck, Austria), oxygen consumption at each step of the protocol was normalized to vehicle control and illustrated in histograms. For all HRR protocols, cell viability was determined after trypsinization and also after end of HRR runs via trypan blue cell staining and counting using a hemocytometer. […]

Substance: avocatin B [AvoB]
- Glucose oxidation by HRR after 10 mM glucose (metabolic flexibility) (0.25 mM palmitate 24 h, then 10 mM glucose 15 min): increased
- Palmitate supported respiration (OCR, HRR) (0.25 mM palmitate-BSA/1 mM L-carnitine, 24 h): inhibited palmitate supported basal and maximal-uncoupled respiration

— patent publication US12390423B2 (priority 2019, dated 2025)
